≈ marks a conversion by molar mass, not a printed value.
What was measured:
[1] = tested on: Mus musculus; assay: Long time survivors of mice alive/total on day 30 after administration (60 mg/kg per injection) intraperitoneally on days 1 and 5; 2 survived out of 4 mice.; assay type: functional
[2] = tested on: Mus musculus; assay: Long time survivors of mice alive/total on day 30 after administration of the compound; 1 survived out of 4 mice.; assay type: functional
[3] = tested on: Mus musculus; assay: Long-time survivors of mice alive/total on day 30 after administration (60 mg/kg per injection) intraperitoneally on days 1 and 5; assay type: functional
[4] = tested on: Mus musculus; assay: Tested for percent median survival time of drug-treated mice compared to saline -treated control at a dose of 40 mg/kg intraperitoneally; assay type: functional; conditions: route intraperitoneal
[5] = tested on: Mus musculus; assay: Tested for percent median survival time of drug-treated mice compared to saline -treated control at a dose of 80 mg/kg intraperitoneally; assay type: functional; conditions: route intraperitoneal
[6] = tested on: Mus musculus; assay: Tested for percent median survival time of drug-treated mice compared to saline -treated control at a dose of 120 mg/kg intraperitoneally; assay type: functional; conditions: route intraperitoneal
[7] = tested on: Mus musculus; assay: Long time survivors of mice alive/total on day 30 after administration of the compound; 3 survived out of 4 mice.; assay type: functional
[8] = tested on: HCT-116; assay: Tested for in vitro cytotoxicity against HCT116 cells; assay type: functional, cell-based; conditions: Homo sapiens
[9] = tested on: Mus musculus; assay: Tested for percent median survival time of drug-treated mice compared to saline -treated control at a dose of 25 mg/kg intraperitoneally; assay type: functional; conditions: route intraperitoneal
[10] = tested on: Mus musculus; assay: Tested for percent median survival time of drug-treated mice compared to saline -treated control at a dose of 100 mg/kg intraperitoneally; assay type: functional; conditions: route intraperitoneal
[11] = tested on: Mus musculus; assay: Tested for percent median survival time of drug-treated mice compared to saline -treated control at a dose of 50 mg/kg intraperitoneally; assay type: functional; conditions: route intraperitoneal
[12] = tested on: Mus musculus; assay: Long time survivors of mice alive/total on day 30 after administration (60 mg/kg per injection) intraperitoneally on days 1 and 5; 4 survived out of 4 mice; assay type: functional
[13] = tested on: Mus musculus; assay: Tested for percent median survival time of drug-treated mice compared to saline -treated control at a dose of 38 mg/kg intraperitoneally; assay type: functional; conditions: route intraperitoneal
[14] = tested on: Mus musculus; assay: Long-time survivors of mice alive/total on day 30 after administration (100 mg/kg) intraperitoneally on days 5 and 8 (experiment 1); assay type: functional
[15] = tested on: HCT cell line; assay: Compound was evaluated for in vitro cytotoxicity against HCT/VP35 cells; assay type: functional, cell-based; conditions: Homo sapiens
[16] = Ratio of inhibition of HCT116 to that of inhibition of HCT/VP 35 cells; assay type: functional, HCT-116
[17] = tested on: Mus musculus; assay: Tested for percent median survival time of drug-treated mice compared to saline -treated control at a dose of 75 mg/kg intraperitoneally; assay type: functional; conditions: route intraperitoneal
[18] = tested on: Mus musculus; assay: Tested for percent median survival time of drug-treated mice compared to saline -treated control at a dose of 150 mg/kg intraperitoneally; assay type: functional; conditions: route intraperitoneal

Row | SMILES | LTS [2] | Max T/C [3] [%] | LTS [7] | IC50 [8] [µg/mL] | IC50 [15] [µg/mL] | Ratio [16] | further results
1 | COC1=CC([C@@H]2c3cc4c(cc3[C@@H](O[C@@H]3O[C@@H]5CO[C@@H](C)O[C@H]5[C@H](O)[C@H]3O)[C@H]3COC(=O)[C@@H]32)OCO4)=CC(=O)C1=O | >1 | > 595 | 3 | – | – | – | LTS [1]: 2; T/C [4]: 274; T/C [5]: >621; T/C [6]: 447
2 | COc1cc([C@@H]2c3cc4c(cc3[C@@H](O[C@@H]3O[C@@H]5CO[C@@H](C)O[C@H]5[C@H](O)[C@H]3O)[C@H]3COC(=O)[C@H]23)OCO4)cc(O)c1O | 1 | > 563 | 2 | 35 (≈ 60.9 µM) | – | – | T/C [9]: 250; T/C [10]: 344; T/C [11]: >413; LTS [12]: 4
3 | C[C@@H]1OC[C@H]2O[C@@H](O[C@@H]3c4cc5c(cc4[C@@H](c4cc(O)c(O)c(O)c4)[C@H]4C(=O)OC[C@@H]43)OCO5)[C@H](O)[C@@H](O)[C@@H]2O1 | – | – | – | 79 (≈ 141 µM) | 68.9 (≈ 123 µM) | 0.87 | T/C [13]: 100; Max T/C [14]: 230%; T/C [17]: 130; T/C [18]: 150
4 | COc1cc([C@@H]2c3cc4c(cc3[C@@H](O[C@@H]3O[C@@H]5CO[C@@H](C)O[C@H]5[C@H](O)[C@H]3O)[C@H]3COC(=O)[C@H]23)OCO4)cc(OC)c1O [ETOPOSIDE] | – | – | – | 0.35 (≈ 0.595 µM) | 5.2 (≈ 8.84 µM) | 15 | –

Reference: ChEMBL document CHEMBL1159153, “Synthesis and biological activity of 3,4,5-trihydroxy etoposide” (Bioorg Med Chem Lett, 1993)
